Experimental data published in the NIST ThermoML archive (doi:10.1016/j.jct.2013.01.008).

Assays:
[1] = wn = mass fraction of the nth substance listed; details: 101 kPa, Liquid; for mass density: Pycnometric method; for viscosity: Capillary tube (Ostwald / Ubbelohde) method
[2] = 101 kPa, Liquid; for viscosity: Capillary tube (Ostwald / Ubbelohde) method
[3] = mn = molality of the nth substance listed, in mol/kg; details: 101 kPa, Liquid, m2 = 0; for viscosity: Capillary tube (Ostwald / Ubbelohde) method

O=C[C@H](O)[C@@H](O)[C@H](O)[C@H](O)CO [D-glucose] + O
[1]
Details	mass density, w1 = 0.05 [kg/m3]	mass density, w1 = 0.1 [kg/m3]	mass density, w1 = 0.15 [kg/m3]	mass density, w1 = 0.2 [kg/m3]	viscosity, w1 = 0.05 [mPa·s]	viscosity, w1 = 0.1 [mPa·s]	viscosity, w1 = 0.15 [mPa·s]	viscosity, w1 = 0.2 [mPa·s]
293.15 K	1016.28	1034.79	1053.29	1072.41	–	–	–	–
298.15 K	1014.69	1033.15	1051.61	1070.31	0.9767	1.12	1.316	1.67
303.15 K	1013.08	1031.5	1049.92	1068.17	0.8605	0.9907	1.147	1.491
308.15 K	1011.47	1029.84	1048.37	1065.97	0.7697	0.8844	1.018	1.345
313.15 K	1009.85	1028.17	1046.62	1063.76	0.6945	0.7901	0.8925	1.21
318.15 K	–	1026.48	1044.93	1061.52	0.6334	0.7223	0.8097	1.112

O [water]
[2]
Details	viscosity [mPa·s]
298.15 K	0.8903
303.15 K	0.7973
308.15 K	0.719
313.15 K	0.6526
318.15 K	0.5972

Details	mass density [kg/m3]
[2], 308.15 K, Pycnometric method	994.07

O [water] + C[C@@H](O)[C@H](N)C(=O)O
[3]
Details	viscosity [mPa·s]
298.15 K	0.8903
303.15 K	0.7973
308.15 K	0.719
313.15 K	0.6526
318.15 K	0.5972

Details	mass density [kg/m3]
[3], 308.15 K, Pycnometric method	994.07
